In BindingDB's records for doi:10.7270/Q2HT2MQ5 (Nmmlsc, 2009) one finds Ki data, which are given here for one molecule.

For orientation: Ki means the dissociation constant of the complex between target and ligand, obtained from inhibition or displacement. Higher therefore signals a looser hold on the target.

The target in this assay is Cell division control protein 42 homolog (Homo sapiens, UniProt P60953). As to the kind of experiment: blockade of fluorescent GTP uptake by Cdc42 wt – biochemical, bead-based multiplex flow cytometry, oxadiazole series, SAR follow-up (AID 2037). To be noted: inactive by the depositor's call. A general note: A flow cytometer gives signals particle by particle.
Sequence of Cell division control protein 42 homolog (P60953 whole entry): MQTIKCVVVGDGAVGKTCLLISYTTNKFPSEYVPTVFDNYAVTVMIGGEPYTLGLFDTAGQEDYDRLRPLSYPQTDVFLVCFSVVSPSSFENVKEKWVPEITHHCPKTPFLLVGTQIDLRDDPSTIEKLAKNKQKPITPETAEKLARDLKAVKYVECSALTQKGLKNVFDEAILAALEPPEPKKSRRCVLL

Turning to `COc1ccc(-c2noc(CCC(=O)N3CCN(c4ccc(OC)cc4)CC3)n2)cc1` [3-[3-(4-methoxyphenyl)-1,2,4-oxadiazol-5-yl]-1-[4-(4-methoxyphenyl)piperazin-1-yl]propan-1-one], the Ki worked out at 100 nM.
